Results from patent publication US20110052678A1, “METHOD FOR TREATING AGE RELATED MACULAR DEGENERATION” (priority 2010, published 2011).

Columns and labels:
[1] = in vivo; cited from earlier work
patients [2] = experiment: Clinical use of MSM ophthalmic drops by the inventor; format: in vivo, human
Source text: We have used aqueous solutions of MSM filtered, sterilized, and mixed with insulin.

[3] = water; cited from earlier work
oxidized cells = conditions: H2O2 induced, insulin pretreatment; cited from earlier work
[4] = local application incl. conjunctival sac, scalp, gums, wounds
Source text: The present invention formulations contain only 0.10 to 1.00 IU per drop which the dosage can be increased or the dosage can be decreased depending upon the disease states.

[5] = cited from earlier work
photoreceptor cell = conditions: in vitro model; cited from earlier work
[6] = test system: dry mouth and dry eyes conditions; experiment: Clinical use of ADT orally and as eye drops; format: in vivo; conditions: 25 mg orally and nanograms concentration in eye drops
Protocol: We have used ADT 25 mg orally and ADT in nanograms concentration in liquid ophthalmic eye drops with success in these conditions, especially, those on chemotherapy, menopausal women, and chronic smokers with dry mouth and dry eyes conditions. There is secretory dysfunction associated with RPE and Muller cells which are needed for proper functioning of the photoreceptors by removing ROS. This can be one of the important non toxic oral and eye drops for the treatment of age related macular degeneration (Ben-Mandi M H, Gozin A, Driss F, Andrieu V, Christen M O, Pasquier C. Anethole dithiolethione regulates oxidant-induced tyrosine kinase activation in endothelial cells. Antioxid Redox Signal. 2000 Winter, 2 (4):789-99). […] (Han S F, Yao T T, Zhang X X, Gan L, Zhu C, Yu H Z, Gan Y. Int J Pharm. Lipid-based formulations to enhance oral bioavailability of the poorly water-soluble drug anetholtrithione: effects of lipid composition and formulation. 2009 Sep. 8; 379(1):18-24. Epub 2009 Jun. 7.).

[7] = after oral intake; cited from earlier work
patients [8] = conditions: supplementation; cited from earlier work
[9] = test system: patients with neovascular ARMS; conditions: intravitreous 1.25 mg injections; cited from earlier work
[10] = test system: individuals with macular edema; conditions: fluorescein angiography; cited from earlier work

Insulin glargine
Peak action in hours [1]: 8 to 16 h

Regular (soluble): short-acting regular (soluble) insulin
Peak action in hours [1]: 2 to 3 h

CS(C)(=O)=O [MSM, Methylsulfonylmethane]
treatment outcome (patients [2]; aqueous MSM mixed with insulin as eye drops, ARMD, retinitis pigmentosa, cataract, dry eye, glaucoma): good results
patient-reported vision (patients [2]; ophthalmic drops, aged, Lyme disease and cancer patients): their vision had improved
solubility [3]: soluble in water

insulin
lipid peroxidation (oxidized cells): significantly inhibited
change of blood sugar levels (hypoglycemic effect) [4]: did not change the blood sugar levels

NPH (isophane): intermediate-acting NPH (isophane) insulin
Peak action in hours [1]: 6 to 10 h

hyaluronic acid
pH ([5]; 0.1% solution): 6.0-7.5
water contained relative to own weight ([5]; hydrated): up to 1,000 fold

brimonidine tartrate
photoreceptor cell degeneration (photoreceptor cell): prevent photoreceptor cell degeneration

Insulin detemir
Peak action in hours [1]: 6 to 8 h

anethole dithiolethione [ADT]
treatment outcome [6]: success

Vitamin A
time to peak blood concentration [7]: one
postponement of blindness (patients [8]): ~10 years

bevacizumab
patients improved 10 or more letters [9]: more than 45%

CC(=O)Nc1nnc(S(N)(=O)=O)s1 [acetazolamide]
leakage of dye into the photoreceptor area [10]: inhibited
